Data as given in article PMC11735596, “Sulfoquinovosyl diacylglycerol, a component of Holy Basil Ocimum tenuiflorum, inhibits the activity of the SARS-CoV-2 main protease and viral replication in vitro” (Journal of Natural Medicines, 2024).
Several values for one entry are separate records, joined by “and”; a condition that tells them apart may be missing. Equal values may be shown once.

Columns and labels:
in vitro = details: African green monkey
[1] = test system: SARS-CoV-2 (WK-521 strain); test: Anti-SARS-CoV-2 assay in infected VeroE6/TMPRSS2 cells (tetrazolium dye method); details: for Protection of infected cells from virus-induced cell death (in words): MOI 0.002, 3 days
[2] = test system: SARS-CoV-2 spike S1 and ACE2; set-up: method as in PMID 34677731; details: cited from earlier work

SMILES | CC50 (in vitro) [µM] | Cytotoxicity (in words) (VeroE6/TMPRSS2 cells) | Protection of infected cells from virus-induced cell death (in words) [1] | EC50 ([1]; read-out: EC50, suppression of SARS-CoV-2 replication, MOI 0.002, 3 days) | Effect on interaction between SARS-CoV-2 spike S1 and ACE2 (in words) [2]
CC/C=C\C/C=C\C/C=C\CCCCCCCC(=O)OC[C@H](CO[C@H]1O[C@H](CS(=O)(=O)O)[C@@H](O)[C@H](O)[C@H]1O)OC(=O)CCCCCCC/C=C\C/C=C\C/C=C\CC [Compound 1, 1,2-di-(9Z,12Z,15Z-octadecatrienoyl)-3-(6′-sulfo-α-D-quinovosyl)-sn-glycerol] | > 100 | did not show apparent cytotoxicity | dose-dependent protection | 51.2 µM and 51 µM | –
CC/C=C\C/C=C\C/C=C\CCCCCCCC(=O)OC[C@H](CO[C@@H]1O[C@H](CO[C@H]2O[C@H](CO)[C@H](O)[C@H](O)[C@H]2O)[C@H](O)[C@H](O)[C@H]1O)OC(=O)CCCCCCC/C=C\C/C=C\C/C=C\CC [Compound 2, 1,2-di-(9Z,12Z,15Z-octadecatrienoyl)-3-O-(α-D-galactosyl-1-6-β-D-galactosyl)-sn-glycerol] | – | – | inhibited cell death caused by SARS-CoV-2 in a concentration-dependent manner | – | –
CC/C=C\C/C=C\C/C=C\CCCCCCCC(=O)OC [Compound 5, Methyl linolenate, reference compound] | – | – | inhibited cell death caused by SARS-CoV-2 in a concentration-dependent manner | – | –
C=CCc1ccc(O)c(OC)c1 [eugenol] | – | – | – | – | inhibited the interaction between SARS-CoV-2 spike S1 and ACE2
